Experimental findings from US20080021099A1, “5-Cyano-prostacyclin derivatives as agents for the treatment of autoimmune disease” (Bayer Schering Pharma Aktiengesellschaft, priority 2006, published 2008) are described below.

The experiment relates to Human monocyte derived dendritic cells. Description: LPS-stimulated monocyte-derived dendritic cell IL-12 release, ELISA. Type of experiment: cell-based. To be noted: 1 µM of PGE2, 10 ng/mL LPS, approx. 18 hr. The text has this:
Following stimulation through the toll-like receptors TLR, DCs express and release proinflammatory cytokines and chemokines and may induce activation and proliferation of naïve T cells. The binding of Nileprost to the EP receptor inhibits TLR4 ligand (LPS)-stimulated IL-12 release. Therefore, Nileprost skews the CD4 T cell differentiation to a Th-2 lineage.
IL-12 is a 75 kDa glycoprotein heterodimer (p70) composed of two genetically unrelated subunits linked by a disulfide bond. Enzyme-linked immunosorbant assays based on antibodies specific to IL-12 p70 are commercially available. Standards and samples are pipetted into the wells of a microplate. An antibody specific to human IL-12 is added to the wells. A substrate is added to the wells and color develops in proportion to the amount of IL-12 bound. The intensity of the color is measured.
Human monocyte-derived dendritic cells were isolated from human donors using a Ficoll density gradient and residual erythrocytes were removed by selective lysis. CD14 MicroBeads were used for separation of human cells based on the expression of the CD14 antigen. The dendritic cells were cultured at approximately 1.5×10^6 cells per mL in RPMI1640 with fetal bovine serum, 200 ng/mL GM-CSF (Leukine) and 10 ng/mL IL-4. The cells grew for a period of 3 days and then the media was changed. 10 ng/mL LPS was used to activate the cells. 1 μM of Nileprost and 1 µM of PGE2 were added during the LPS stimulation. Cells were incubated for approximately 18 hr at 37° C. IL-12 released during activation was measured by ELISA.
For orientation: ELISA stands for enzyme-linked immunosorbent assay.

With `CCCCC[C@H](O)/C=C/[C@H]1[C@H](O)CC(=O)[C@@H]1C/C=C\CCCC(=O)O` [PGE2, Prostaglandin E2, reference compound], the “Inhibition (percent) of IL-12 release” value by setting is: (Donor 1) 80%; (Donor 2) 33%; (Donor 3) 83%; (Donor 4) 72%.
